Results published in patent publication US10144715B2, “Piperazine derivatives as liver X receptor modulators” (priority 2014, dated 2018).
Read-outs that look alike come from different tables or passages of the source.

Legend:
[1] = molecular target: T1, Gal4 DNA binding domain fused to the LBD of LXRα in HEK293 cells (Homo sapiens (Human), UniProt Q13133); test: LXR luciferase transcriptional reporter gene assay, agonist mode, LXRα; type: cell-based; settings: for EC50: read-out: Cell LXRα EC50
[2] = molecular target: T1, Gal4 DNA binding domain fused to the LBD of LXRα in HEK293 cells; test: LXR luciferase transcriptional reporter gene assay, antagonist mode (200 nM T0901317), LXRα; type: cell-based; settings: for IC50: read-out: Cell LXRα IC50
[3] = molecular target: LXR β LBD protein (Homo sapiens (Human), UniProt P55055); test: biochemical; type: binding; settings: read-out: LXRβ Binding Ki
[4] = molecular target: LXR α LBD protein (Homo sapiens (Human), UniProt Q13133); test: LXR α radioligand binding assay (SPA, competition with [3H]TO901317); settings: read-out: LXRα Binding Ki
[5] = molecular target: T2, Gal4 DNA binding domain fused to the LBD of LXRβ in HEK293 cells (Homo sapiens (Human), UniProt P55055); test: cell-based
[6] = molecular target: T2, Gal4 DNA binding domain fused to the LBD of LXRβ in HEK293 cells; test: cell-based; type: cell-based
[7] = agonist mode, read-out: Cell LXRβ EC50
[8] = antagonist mode, 200 nM T0901317, HEK293 reporter gene assay
[9] = antagonist mode, 200 nM T0901317, HEK293 reporter gene assay, read-out: Cell LXRβ IC50
[10] = Biological Test Example 2, agonist mode
[11] = Biological Test Example 2, agonist mode, read-out: Cell LXRβ EC50

Chain of LXR α LBD protein (Q13133 209-447): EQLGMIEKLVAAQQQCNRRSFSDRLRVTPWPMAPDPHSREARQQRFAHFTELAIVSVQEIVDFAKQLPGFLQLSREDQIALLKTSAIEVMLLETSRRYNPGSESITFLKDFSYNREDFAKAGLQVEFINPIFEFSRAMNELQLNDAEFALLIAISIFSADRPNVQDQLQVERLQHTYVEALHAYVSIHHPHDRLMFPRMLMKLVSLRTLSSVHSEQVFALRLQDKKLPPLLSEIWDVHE
T1 sequence (Q13133 209-447): as above
T2 sequence (P55055 222-460 limits assumed): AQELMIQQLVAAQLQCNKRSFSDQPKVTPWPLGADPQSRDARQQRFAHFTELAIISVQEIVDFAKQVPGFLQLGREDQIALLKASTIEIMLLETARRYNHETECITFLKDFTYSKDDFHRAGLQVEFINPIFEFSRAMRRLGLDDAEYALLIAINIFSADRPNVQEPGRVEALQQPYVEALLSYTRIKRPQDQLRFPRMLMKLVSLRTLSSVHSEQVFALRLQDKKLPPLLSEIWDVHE
Chain of LXR β LBD protein (P55055 222-460 limits assumed): as above

SMILES	Cell LXRα efficacy [1]	EC50 [1]	Cell LXRα efficacy [2]	IC50 [2]	Ki [3]	Ki [4]	EC50 [5]	Cell LXRβ efficacy ([5]; agonist mode)	IC50 [6]	EC50 [5, 7]	Cell LXRβ efficacy [6, 8]	IC50 [6, 9]	Ki ([3]; Biological Test Example 1)	Cell LXRβ efficacy [5, 10]	EC50 [5, 11]	EC50 ([1]; agonist mode)	IC50 [2, 8]	Cell LXRβ efficacy [6]
CC(O)c1cnc(N2CCN(c3ccc(F)c(S(C)(=O)=O)c3)C[C@H]2C(C)C)nc1C(F)(F)F (mixture of isomers) [Cpd No 12-1, 1-(2-((R)-4-(4-fluoro-3-(methylsulfonyl)phenyl)-2-isopropylpiperazin-1-yl)-4-(trifluoromethyl)pyrimidin-5-yl)ethan-1-ol]	969 (46) %	969 nM	8047 (105) %	8050 nM	23 nM	230 nM	154 nM	154 (37) %	252 nM									
CS(=O)(=O)c1cccc(N2CCN(C[C@H]3CC[C@@](C)(O)CC3)[C@@H](c3ccccc3)C2)c1 (single isomer, unassigned) [48-5]		> 20000 nM	1169 (61) %	1170 nM	123 nM	1270 nM				> 20000 nM	93%	118 nM						
NS(=O)(=O)c1cccc(N2CCN(C[C@H]3CC[C@@H](C(F)F)CC3)[C@@H](c3ccccc3)C2)c1 (single isomer, unassigned) [48-23]	319 (43) %	319 nM	4955 (123) %	4960 nM	11 nM	94 nM		14%		97 nM	91%	408 nM						
CS(=O)(=O)c1cccc(N2CCN(C[C@@H]3C[C@@H]4[C@H](C3)C4(F)F)[C@@H](c3ccccc3)C2)c1 (single isomer, unassigned) [48-66]	2518 (40) %	2520 nM	7360 (100) %	7360 nM		804 nM					81%	824 nM	103 nM	20%	716 nM			
CS(=O)(=O)c1cccc(N2CCN(C[C@H]3CC[C@]4(CC3)CC4(F)F)[C@@H](c3ccccc3)C2)c1 (single isomer, unassigned) [48-71]	236 (57) %	236 nM		> 10000 nM		50 nM					54%	163 nM	10 nM	25%	75 nM			
CC[C@@H](O)c1cnc(N2CCN(c3ccc(F)c(S(C)(=O)=O)c3)C[C@H]2C(C)C)nc1C(F)(F)F (single isomer, unassigned) [Cpd No 12-7]	862 (25) %				9 nM	82 nM	49 nM	49 (15) %	104 nM		104 (87) %					862 nM	686 nM	
CNS(=O)(=O)c1cc(N2CCN(c3ncc(C(C)(C)O)c(C(F)(F)F)n3)[C@H](C(C)C)C2)ccc1F [10-3, (R)-2-fluoro-5-(4-(5-(2-hydroxypropan-2-yl)-4-(trifluoromethyl)pyrimidin-2-yl)-3-isopropylpiperazin-1-yl)-N-methylbenzenesulfonamide]	646 (35) %		2003 (83) %		5 nM	135 nM	69 nM	69 (24) %	242 nM							646 nM	2000 nM	
CC(C)[C@@H]1CN(c2ccc(F)c(S(C)(=O)=O)c2)CCN1c1ncc(CN(C)C(C)(C)C)c(C(F)(F)F)n1 [15-6, (R)-N-((2-(4-(4-fluoro-3-(methylsulfonyl)phenyl)-2-isopropylpiperazin-1-yl)-4-(trifluoromethyl)pyrimidin-5-yl)methyl)-N,2-dimethylpropan-2-amine]			6215 (98) %		360 nM	> 3330 nM	> 20000 nM		1320 nM		1325 (91) %					> 20000 nM	6220 nM	
CC(C)[C@@H]1CN(c2ccc(F)c(S(C)(=O)=O)c2)CCN1c1ncc(C(=O)N2CCOCC2)c(C(F)(F)F)n1 [17-8, (R)-(2-(4-(4-fluoro-3-(methylsulfonyl)phenyl)-2-isopropylpiperazin-1-yl)-4-(trifluoromethyl)pyrimidin-5-yl)(morpholino)methanone]					311 nM		> 20000 nM		538 nM		538 (91) %					> 20000 nM	2280 nM	
CCCCN(C)C(=O)c1cnc(N2CCN(c3ccc(F)c(S(C)(=O)=O)c3)C[C@H]2C(C)C)nc1C(F)(F)F [17-10, (R)-N-butyl-2-(4-(4-fluoro-3-(methylsulfonyl)phenyl)-2-isopropylpiperazin-1-yl)-N-methyl-4-(trifluoromethyl)pyrimidine-5-carboxamide]			501 (94) %		65 nM	558 nM	> 20000 nM		100 nM		100 (89) %					> 20000 nM	501 nM	
CC(C)[C@@H]1CN(c2ccc(F)c(S(C)(=O)=O)c2)CCN1c1ncc(C(=O)N(C)CCCO)c(C(F)(F)F)n1 [17-11, (R)-2-(4-(4-fluoro-3-(methylsulfonyl)phenyl)-2-isopropylpiperazin-1-yl)-N-(3-hydroxypropyl)-N-methyl-4-(trifluoromethyl)pyrimidine-5-carboxamide]					548 nM	4880 nM	> 20000 nM		875 nM		875 (90) %					> 20000 nM	3460 nM	
COCCN(C)C(=O)c1cnc(N2CCN(c3ccc(F)c(S(C)(=O)=O)c3)C[C@H]2C(C)C)nc1C(F)(F)F [17-12, (R)-2-(4-(4-fluoro-3-(methylsulfonyl)phenyl)-2-isopropylpiperazin-1-yl)-N-(2-methoxyethyl)-N-methyl-4-(trifluoromethyl)pyrimidine-5-carboxamide]		> 20000 nM		1140 nM	210 nM		> 20000 nM		295 nM									
CCOC(=O)CN(C)C(=O)c1cnc(N2CCN(c3ccc(F)c(S(C)(=O)=O)c3)C[C@H]2C(C)C)nc1C(F)(F)F [17-16, ethyl (R)-N-(2-(4-(4-fluoro-3-(methylsulfonyl)phenyl)-2-isopropylpiperazin-1-yl)-4-(trifluoromethyl)pyrimidine-5-carbonyl)-N-methylglycinate]			1530 (99) %		194 nM	2170 nM	> 20000 nM		361 nM							> 20000 nM	1530 nM	361 (86) %
CCOC(=O)CCN(C)C(=O)c1cnc(N2CCN(c3ccc(F)c(S(C)(=O)=O)c3)C[C@H]2C(C)C)nc1C(F)(F)F [17-18, ethyl (R)-3-(2-(4-(4-fluoro-3-(methylsulfonyl)phenyl)-2-isopropylpiperazin-1-yl)-N-methyl-4-(trifluoromethyl)pyrimidine-5-carboxamido)propanoate]			1159 (92) %		129 nM		> 20000 nM		186 nM							> 20000 nM	1160 nM	186 (98) %
CC(C)[C@@H]1CN(c2ccc(F)c(S(C)(=O)=O)c2)CCN1c1ncc(CN2CCOCC2)c(C(F)(F)F)n1 [Cpd No 15-5, (R)-4-((2-(4-(4-fluoro-3-(methylsulfonyl)phenyl)-2-isopropylpiperazin-1-yl)-4-(trifluoromethyl)pyrimidin-5-yl)methyl)morpholine]	2592 (12) %				36 nM		36 nM	36 (3) %	221 nM		221 (105) %					2590 nM	1160 nM	
CC(C)[C@@H]1CN(c2ccc(CO)c(S(C)(=O)=O)c2)CCN1c1ncc(C(N)=O)c(C(F)(F)F)n1 [Cpd No 17-25, (R)-2-(4-(4-(hydroxymethyl)-3-(methylsulfonyl)phenyl)-2-isopropylpiperazin-1-yl)-4-(trifluoromethyl)pyrimidine-5-carboxamide]	1127 (18) %		3652 (98) %				46 nM	46 (13) %	359 nM		359 (99) %					1130 nM	3650 nM	
CC(C)[C@@H]1CN(c2cc(F)c(CO)c(S(C)(=O)=O)c2)CCN1c1ncc(C(N)=O)c(C(F)(F)F)n1 [Cpd No 17-28, (R)-2-(4-(3-fluoro-4-(hydroxymethyl)-5-(methylsulfonyl)phenyl)-2-isopropylpiperazin-1-yl)-4-(trifluoromethyl)pyrimidine-5-carboxamide]	913 (9) %						20 nM	20 (9) %	182 nM		182 (98) %					913 nM	2550 nM	
